≈ marks a conversion by molar mass, not a printed value. Where “and” joins values, the source holds several entries; their conditions need not be identical. Identical values can stand only once.
Tests used:
S. aureus isolates [1] = test: In vivo efficacy of daptomycin in combination with pp296, neutropenic murine thigh infection model; settings: 24 h; for Replicate Log10 CFU/thigh data: daptomycin alone
Description: Study animals: Specific pathogen-free female ICR mice (average body weight 23 grams) were provided food and water ad libitum and maintained and used in accordance with National Research Council recommendations. Animals were allowed a 48-hour post-delivery acclimation period before every experiment. Mice were rendered transiently neutropenic by injection of cyclophosphamide via intraperitoneal (IP) route at a dose of 150 mg/kg of body weight at four days before bacterial inoculation and 100 mg/kg of body weight at one day before bacterial inoculation.
Neutropenic Thigh Infection Model: Two transfers of the bacterial isolates were performed onto trypticase soy agar plates with 5% sheep blood and placed into an incubator at 37° C. for approximately 24 hours. After an 18-24 hour incubation of the second transfer, a suspension of approximately 10^7 CFU/mL was made for inoculation. Final bacterial inoculum concentrations were confirmed by serial dilution and plating techniques. Thigh infection with the test isolate was produced by intramuscular injection of 0.1 mL of the bacterial inoculum into each thigh of the mice. Antimicrobial therapy was initiated 2 hours after bacterial inoculation, as detailed below.
Untreated control mice (n=3) were sacrificed just prior to antibiotic administration and 24 hours after bacterial inoculation. Animals sacrificed prior to antibiotic initiation served as 0-hour control animals, representing initial bacterial burden. […] Treatment mice (n=3/group) were sacrificed at the end of the 24 hour treatment period. After sacrifice, both thighs for each mouse were homogenized in normal saline. Serial dilutions were plated on Trypticase soy agar with 5% sheep blood and incubated for 18 to 20 hours at 37.0 to determine the CFU. Efficacy was calculated as the change in bacterial density obtained in treated mice after 24 hours compared with the numbers in the 0-hour control animals. Bacterial density represents the average CFU determined from 3 mice, each contributing 2 thighs.
For the 4 S. aureus isolates HPV107, CAIRD426, JMI227, and NRS123, the following sub-therapeutic daptomycin dosage regimen was adopted: 0.76 mg/kg at 0 hrs, 0.4 mg/kg at 4 hrs, 0.24 mg/kg at 10 hrs, and 0.12 mg/kg at 17 hrs.

S. aureus isolates [2] = test: MIC determination (broth microdilution) against 8 S. aureus isolates; assay type: cell-based; settings: CAMHB Ca^2+, unit assumed
Description: Suitable methods for assessing the activity of a modified lysin polypeptide as disclosed herein are well known in the art and described in the examples. […] For example, MIC values for a modified lysin polypeptide may be determined against e.g., laboratory Staphylococcus aureus strains, in e.g., Mueller-Hinton broth or Mueller-Hinton broth supplemented with serum, such as horse serum.
The pp296 MICs were determined based on (1) cation-adjusted Mueller-Hinton Broth with 25% horse serum and 0.5 mM DTT (caMHB-HSD); (2) human serum (100% serum); and (3) ICR mice (100% serum). Vancomycin and daptomycin MICs of the isolate strains were determined in accordance with the broth microdilution method as outlined by CLSI. Results of the MIC determination are shown below in Table 2. The bacterial isolates were frozen at −80° C. in skim milk.

S. aureus = test: pp296 dose fractionation study, neutropenic murine thigh infection model; assay type: in vivo; settings: sub-therapeutic daptomycin SC alone, 24 h
Description: Each of the pp296 TDDs was fractionated into three regimens, i.e., one-third of the entire dose was administered via IV three times (q8h); one-half of the entire does was administered via IV two times (q12h), or the entire dose was administered via IV once daily over a 24-hour period, for a total of three groups per each TDD.
Untreated control mice (n=3/group) were sacrificed just prior to antibiotic administration, as well as 24 hours later. Animals sacrificed prior to antibiotic administration served as 0-hour control animals, representing initial bacterial burden. The 24-hour control animals received sterile normal saline in the same volume and schedule as the most frequent active drug regimen. […] After the 24-hour treatment period, all animals were euthanized and thighs were cultured quantitatively as described above. The change in bacterial density was calculated for each of the dosing regimen. Comparisons were made between the different regimens of the same total daily dose on bacterial burdens at 24 hours using one-way Analysis of Variance (ANOVA) test followed by Tukey's test where the P value was 0.05.

`CCCCCCCCCC(=O)N[C@@H](Cc1c[nH]c2ccccc12)C(=O)N[C@H](CC(N)=O)C(=O)N[C@@H](CC(=O)O)C(=O)N[C@@H]1C(=O)NCC(=O)N[C@@H](CCCN)C(=O)N[C@@H](CC(=O)O)C(=O)N[C@H](C)C(=O)N[C@@H](CC(=O)O)C(=O)NCC(=O)N[C@H](CO)C(=O)N[C@@H]([C@H](C)CC(=O)O)C(=O)N[C@@H](CC(=O)c2ccccc2N)C(=O)O[C@@H]1C` [Daptomycin, daptomycin] was tested, and the “Replicate Log10 CFU/thigh data” value (S. aureus isolates [1]; isolate ATCC2921, 0.475/0.25/0.15/0.075 mg/kg at 0/4/10/17 hrs) was 8.02 Log10 CFU/thigh and 8.04 Log10 CFU/thigh and 7.79 Log10 CFU/thigh and 8.03 Log10 CFU/thigh and 6.18 Log10 CFU/thigh and 7.38 Log10 CFU/thigh, the “Replicate Log10 CFU/thigh data” value (S. aureus isolates [1]; isolate CAIRD426, 0.76/0.4/0.24/0.12 mg/kg at 0/4/10/17 hrs) was 8.16 Log10 CFU/thigh and 8.20 Log10 CFU/thigh and 7.59 Log10 CFU/thigh and 8.18 Log10 CFU/thigh and 7.47 Log10 CFU/thigh and 7.35 Log10 CFU/thigh and the “Replicate Log10 CFU/thigh data” value (S. aureus isolates [1]; isolate HPV107, 0.76/0.4/0.24/0.12 mg/kg at 0/4/10/17 hrs) was 7.16 Log10 CFU/thigh and 7.34 Log10 CFU/thigh and 7.24 Log10 CFU/thigh and 7.08 Log10 CFU/thigh and 6.74 Log10 CFU/thigh and 5.77 Log10 CFU/thigh. For the same molecule, the “Replicate Log10 CFU/thigh data” value (S. aureus isolates [1]; isolate JMI227, 0.76/0.4/0.24/0.12 mg/kg at 0/4/10/17 hrs) was 5.93 Log10 CFU/thigh and 6.08 Log10 CFU/thigh and 6.48 Log10 CFU/thigh and 6.73 Log10 CFU/thigh and 6.86 Log10 CFU/thigh and 6.89 Log10 CFU/thigh, the “Replicate Log10 CFU/thigh data” value (S. aureus isolates [1]; isolate JMI4789, 0.475/0.25/0.15/0.075 mg/kg at 0/4/10/17 hrs) was 8.00 Log10 CFU/thigh and 6.85 Log10 CFU/thigh and 8.63 Log10 CFU/thigh and 8.52 Log10 CFU/thigh and 8.14 Log10 CFU/thigh and 7.21 Log10 CFU/thigh and the “Replicate Log10 CFU/thigh data” value (S. aureus isolates [1]; isolate NRS100, 0.475/0.25/0.15/0.075 mg/kg at 0/4/10/17 hrs) was 4.83 Log10 CFU/thigh and 5.29 Log10 CFU/thigh and 6.67 Log10 CFU/thigh and 7.76 Log10 CFU/thigh and 6.20 Log10 CFU/thigh and 7.09 Log10 CFU/thigh. The “Replicate Log10 CFU/thigh data” value (S. aureus isolates [1]; isolate NRS123, 0.76/0.4/0.24/0.12 mg/kg at 0/4/10/17 hrs) was 6.73 Log10 CFU/thigh and 7.28 Log10 CFU/thigh and 6.86 Log10 CFU/thigh and 7.09 Log10 CFU/thigh and 5.81 Log10 CFU/thigh and 6.81 Log10 CFU/thigh, the “Replicate Log10 CFU/thigh data” value (S. aureus isolates [1]; isolate NRS217, 0.475/0.25/0.15/0.075 mg/kg at 0/4/10/17 hrs) was 7.94 Log10 CFU/thigh and 7.84 Log10 CFU/thigh and 7.89 Log10 CFU/thigh and 7.92 Log10 CFU/thigh and 8.01 Log10 CFU/thigh and 8.02 Log10 CFU/thigh and the “average bacterial growth vs starting inoculum” value (S. aureus isolates [1]; sub-therapeutic daptomycin alone, 8 isolates) was 1.47±0.80 log10 CFU/thigh. It also gave an MIC Daptomycin (CAMHB Ca^2+) (S. aureus isolates [2]; ATCC 29213 MSSA) of 1 µg/mL (≈ 0.617 µM), an MIC Daptomycin (CAMHB Ca^2+) (S. aureus isolates [2]; CAIRD426 MRSA) of 1 µg/mL (≈ 0.617 µM) and an MIC Daptomycin (CAMHB Ca^2+) (S. aureus isolates [2]; HPV107 MRSA) of 0.5 µg/mL (≈ 0.309 µM). The MIC Daptomycin (CAMHB Ca^2+) (S. aureus isolates [2]; JMI227 MRSA) was 0.5 µg/mL (≈ 0.309 µM), the MIC Daptomycin (CAMHB Ca^2+) (S. aureus isolates [2]; JMI4789 MRSA) was 1 µg/mL (≈ 0.617 µM) and the MIC Daptomycin (CAMHB Ca^2+) (S. aureus isolates [2]; NRS100 (COL) MRSA) was 0.5 µg/mL (≈ 0.309 µM). The MIC Daptomycin (CAMHB Ca^2+) (S. aureus isolates [2]; NRS123 (MW2) MRSA) was 1 µg/mL (≈ 0.617 µM), the MIC Daptomycin (CAMHB Ca^2+) (S. aureus isolates [2]; NRS271 MRSA/LRSA) was 0.5 µg/mL (≈ 0.309 µM) and the “bacterial burden vs 0-hour control mice” value (S. aureus) was 0.82±0.44 log10 CFU/thigh.
